Measured values reported in ChEMBL document CHEMBL1201862, “PubChem BioAssay data set” (2004).
Calls of active or inactive are those of the source.

Key:
[1] = target: T1, Heat shock factor protein 1 (Mus musculus, UniProt P38532); assay: inhibition of MG132-induced HSE-luciferase signal, confirmation, cell-based, NIH3T3, luminescence, dose retest (AID 2382); format: functional;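 further: NIH3T3 fibroblasts with HSF1-driven luciferase reporter stressed by proteasome inhibitor MG132; luminescence from HSF1-driven luciferase expression after 8 hours of MG132 stress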
T1 sequence (P38532 whole entry): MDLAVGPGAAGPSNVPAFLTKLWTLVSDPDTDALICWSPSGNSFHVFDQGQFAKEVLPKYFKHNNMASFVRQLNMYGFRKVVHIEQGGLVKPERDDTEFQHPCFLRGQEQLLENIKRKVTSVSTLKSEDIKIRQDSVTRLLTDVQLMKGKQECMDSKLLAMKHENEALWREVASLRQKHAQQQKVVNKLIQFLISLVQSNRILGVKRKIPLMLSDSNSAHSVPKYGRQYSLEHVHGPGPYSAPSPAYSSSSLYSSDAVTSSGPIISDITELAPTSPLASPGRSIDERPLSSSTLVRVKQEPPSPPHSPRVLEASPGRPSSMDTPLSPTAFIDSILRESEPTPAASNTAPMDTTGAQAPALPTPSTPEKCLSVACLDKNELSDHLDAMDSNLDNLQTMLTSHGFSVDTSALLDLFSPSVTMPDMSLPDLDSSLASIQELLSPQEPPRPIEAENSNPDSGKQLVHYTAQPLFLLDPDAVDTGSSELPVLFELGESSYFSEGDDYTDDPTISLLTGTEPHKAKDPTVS

[2] = target: Cytochrome P450 2C19 (Homo sapiens, UniProt P33261); assay: Cytochrome panel assay with activity outcomes. Panel member name: p450-cyp2c19 Compounds with AC50 equal or less than 10 uM are considered active; format: functional
Chain of Cytochrome P450 2C19 (P33261 whole entry): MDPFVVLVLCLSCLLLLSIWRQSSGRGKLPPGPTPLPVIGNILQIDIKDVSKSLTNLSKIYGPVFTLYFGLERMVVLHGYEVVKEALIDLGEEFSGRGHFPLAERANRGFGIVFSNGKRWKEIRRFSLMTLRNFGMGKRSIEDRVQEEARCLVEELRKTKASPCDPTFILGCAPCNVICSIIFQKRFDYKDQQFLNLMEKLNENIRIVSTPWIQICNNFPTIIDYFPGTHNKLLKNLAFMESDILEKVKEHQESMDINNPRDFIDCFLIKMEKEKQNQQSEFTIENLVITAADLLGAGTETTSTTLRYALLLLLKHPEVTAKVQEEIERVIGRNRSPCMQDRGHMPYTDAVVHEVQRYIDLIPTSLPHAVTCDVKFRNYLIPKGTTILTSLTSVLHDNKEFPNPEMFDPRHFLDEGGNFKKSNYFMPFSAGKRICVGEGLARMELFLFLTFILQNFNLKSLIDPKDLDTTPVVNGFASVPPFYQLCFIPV

[3] = system: Streptococcus sp. 'group A'; assay: growth inhibition of control SK(-) GAS strain, dose response, counter-screen for streptokinase expression inhibitor project, luminescence, kanamycin, BacTiterGlo, confirmation (AID 1900); format: functional, organism-based
[4] = target: T2, Streptokinase A (Streptococcus pyogenes serotype M1, UniProt P10520); assay: S. pyogenes streptokinase expression inhibitors, potency, dose response, plasminogen activation absorbance, OD405 (AID 1914); format: functional, Streptococcus pyogenes M1 GAS;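 further: secreted streptokinase activity via plasminogen activation per viability signal from cell pellet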
T2 sequence (P10520 whole entry): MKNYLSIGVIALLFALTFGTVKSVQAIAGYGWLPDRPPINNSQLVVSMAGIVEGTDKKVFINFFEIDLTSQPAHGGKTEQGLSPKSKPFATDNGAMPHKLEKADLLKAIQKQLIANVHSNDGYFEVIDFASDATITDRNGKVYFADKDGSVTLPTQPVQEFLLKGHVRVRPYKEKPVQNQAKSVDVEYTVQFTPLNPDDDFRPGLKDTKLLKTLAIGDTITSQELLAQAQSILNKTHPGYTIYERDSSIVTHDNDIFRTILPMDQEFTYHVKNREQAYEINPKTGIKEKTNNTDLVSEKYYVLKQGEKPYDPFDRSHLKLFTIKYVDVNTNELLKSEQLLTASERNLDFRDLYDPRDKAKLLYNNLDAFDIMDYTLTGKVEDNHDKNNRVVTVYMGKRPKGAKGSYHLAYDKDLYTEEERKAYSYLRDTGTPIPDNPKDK

[5] = system: Streptococcus; assay: Group A Streptococcus viability loss, dose response, counter-screen for streptokinase expression inhibitor project, luminescence, BacTiterGlo (AID 1915); format: functional, organism-based;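 further: potency for reduction of bacterial viability or growth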
[6] = target: Cytochrome P450 2D6 (Homo sapiens, UniProt P10635);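 further: CYP2D6 member of a cytochrome P450 panel assay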
Chain of Cytochrome P450 2D6 (P10635 whole entry): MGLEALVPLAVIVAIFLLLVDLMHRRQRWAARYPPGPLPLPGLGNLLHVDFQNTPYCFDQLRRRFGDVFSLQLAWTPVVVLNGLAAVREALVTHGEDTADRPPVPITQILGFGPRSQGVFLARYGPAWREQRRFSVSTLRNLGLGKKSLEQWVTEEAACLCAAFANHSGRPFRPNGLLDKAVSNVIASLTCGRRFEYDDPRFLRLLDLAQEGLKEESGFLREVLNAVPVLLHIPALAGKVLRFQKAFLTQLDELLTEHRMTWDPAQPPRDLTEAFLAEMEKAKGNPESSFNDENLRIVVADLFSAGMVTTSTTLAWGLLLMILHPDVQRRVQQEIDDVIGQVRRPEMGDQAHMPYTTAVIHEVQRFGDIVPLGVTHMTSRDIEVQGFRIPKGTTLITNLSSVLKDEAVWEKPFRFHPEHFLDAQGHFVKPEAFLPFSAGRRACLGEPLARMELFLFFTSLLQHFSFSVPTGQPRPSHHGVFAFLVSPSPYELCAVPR

[7] = target: Cytochrome P450 2C9 (Homo sapiens, UniProt P11712)
Chain of Cytochrome P450 2C9 (P11712 whole entry): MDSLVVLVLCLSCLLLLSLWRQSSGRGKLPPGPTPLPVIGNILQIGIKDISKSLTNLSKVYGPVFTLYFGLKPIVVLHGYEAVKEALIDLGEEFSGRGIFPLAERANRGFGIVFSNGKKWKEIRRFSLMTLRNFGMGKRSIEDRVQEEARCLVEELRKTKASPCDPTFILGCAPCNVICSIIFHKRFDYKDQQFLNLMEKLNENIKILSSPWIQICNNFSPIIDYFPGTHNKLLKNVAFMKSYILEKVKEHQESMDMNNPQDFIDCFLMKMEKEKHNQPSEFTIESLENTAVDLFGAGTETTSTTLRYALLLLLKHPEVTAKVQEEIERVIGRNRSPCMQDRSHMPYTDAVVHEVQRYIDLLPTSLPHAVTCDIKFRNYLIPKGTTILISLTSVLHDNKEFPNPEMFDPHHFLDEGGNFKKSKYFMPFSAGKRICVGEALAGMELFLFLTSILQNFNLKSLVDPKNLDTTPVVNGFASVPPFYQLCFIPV

[8] = target: T3, Cytochrome P450 1A2 (Homo sapiens, UniProt P05177);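 further: PubChem cytochrome P450 panel assay, CYP1A2 panel member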
T3 sequence (P05177 whole entry): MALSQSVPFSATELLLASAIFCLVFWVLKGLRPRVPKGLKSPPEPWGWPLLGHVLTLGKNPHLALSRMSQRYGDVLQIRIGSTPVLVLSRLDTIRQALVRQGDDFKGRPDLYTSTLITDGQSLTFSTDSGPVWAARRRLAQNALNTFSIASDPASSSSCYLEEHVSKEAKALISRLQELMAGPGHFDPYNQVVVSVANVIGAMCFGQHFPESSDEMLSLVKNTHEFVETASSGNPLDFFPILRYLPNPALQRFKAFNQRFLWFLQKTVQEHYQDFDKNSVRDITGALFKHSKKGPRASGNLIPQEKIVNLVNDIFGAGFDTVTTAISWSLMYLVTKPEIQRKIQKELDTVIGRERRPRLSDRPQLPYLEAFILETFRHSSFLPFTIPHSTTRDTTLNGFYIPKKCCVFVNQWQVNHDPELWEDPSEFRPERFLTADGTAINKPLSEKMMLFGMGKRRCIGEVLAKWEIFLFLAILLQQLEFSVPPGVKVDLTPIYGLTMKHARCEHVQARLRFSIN

[9] = HEp-2 cell cytotoxicity, dose response, cytotoxicity control for RSV inhibitor project, HTS (AID 2410); format: functional; conditions: human respiratory syncytial virus
[10] = Luminescence Cell-Based Dose Retest to Confirm Inhibitors of Cancer Stem Cells. [Related pubchem assays (depositor defined):AID2717, AID2721]; format: functional; conditions: Homo sapiens
[11] = target: T4, RNA-binding protein pos-1 (Caenorhabditis elegans, UniProt G5EF15); assay: inhibitors of POS-1/mex-3 RNA binding, dose response, biochemical, fluorescence polarization (AID 1964);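 further: purified POS-1 fused to maltose binding protein made in E. coli; potency of compounds blocking POS-1 binding to fluorescent RNA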
T4 sequence (G5EF15 whole entry): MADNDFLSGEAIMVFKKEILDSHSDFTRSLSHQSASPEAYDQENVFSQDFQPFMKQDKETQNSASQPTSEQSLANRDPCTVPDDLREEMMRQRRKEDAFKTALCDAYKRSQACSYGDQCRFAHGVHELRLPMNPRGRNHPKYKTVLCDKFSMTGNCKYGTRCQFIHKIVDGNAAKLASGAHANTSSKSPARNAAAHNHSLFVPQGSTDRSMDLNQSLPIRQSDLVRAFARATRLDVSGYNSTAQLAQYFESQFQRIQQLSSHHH

[12] = target: FAD-linked sulfhydryl oxidase ALR (Homo sapiens, UniProt P55789); assay: inhibitors of human ALR sulfhydryl oxidase, dose response, biochemical, H2O2 detection, luminescence, cherry-pick (AID 493248)
Chain of FAD-linked sulfhydryl oxidase ALR (P55789 whole entry): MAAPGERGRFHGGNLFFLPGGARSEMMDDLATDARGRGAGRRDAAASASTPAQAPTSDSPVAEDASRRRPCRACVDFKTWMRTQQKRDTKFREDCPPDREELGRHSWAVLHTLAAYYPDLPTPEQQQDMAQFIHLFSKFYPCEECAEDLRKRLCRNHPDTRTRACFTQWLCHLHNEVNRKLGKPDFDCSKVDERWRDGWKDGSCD

[13] = system: H4; assay: Luminescence Cell-Based Dose Response HTS to Identify Activators of 5'UTR Stem-Loop Driven Prion Protein mRNA Translation in H4 Neuroglioblastoma Cells. [Related pubchem assays: 1829 (Project Summary), 1814 (Primary HTS)]; format: functional; conditions: Homo sapiens

For `Oc1ccccc1-c1nnc(-c2ccc(C(F)(F)F)cc2)o1`, the EC50 [1] was > 195 µM (not active) and the AC50 ([2]; read-out: AC50) was 39.8 µM (inconclusive).
In the case of `CC(C)(C)c1ccc(CN(Cc2ccco2)Cc2nnnn2C2CCCC2)cc1`, the EC50 [3] is reported as 5.71 µM (active), the EC50 [4] is reported as 12.7 µM (active) and the EC50 [5] is reported as > 150 µM (not active). The AC50 [6] was 22.4 µM (inconclusive).
For `CCc1nc(N[C@H](C(=O)O)C(C)CC)c2oc3ccccc3c2n1` (stereo partly drawn), the AC50 [2] was “inconclusive” and the AC50 [7] was 0.00891 µM (inconclusive).
For `C[C@@H](C(=O)Cc1ccc2ccccc2c1)[C@@H]1C[C@@]1(C)[C@@H](NP(=O)(c1ccccc1)c1ccccc1)c1ccccc1`, the AC50 [8] was 10 µM (inconclusive).
For `COCCn1c(=O)c(-c2cccs2)nc2cnc(N3CCNCC3)nc21`, the AC50 ([2]; read-out: AC50) was 25.1 µM (inconclusive).
For `O=[N+]([O-])c1ccc(S(=O)(=O)Nc2cccc(-c3ccc(N4CCOCC4)nn3)c2)cc1`, the CC50 [9] was > 50 µM (active).
In the case of `O=C(Nc1cccc(C(F)(F)F)c1)C1CCCN1S(=O)(=O)c1cccc2cccnc12` (stereo not drawn), the AC50 [6] is reported as 31.6 µM (inconclusive), the AC50 [8] is reported as 3.16 µM (inconclusive) and the AC50 [7] is reported as 5.62 µM (inconclusive).
With `CCCCCn1c(=O)c(C(=O)c2ccccc2)nc2ccccc21` the AC50 [6] was 28.2 µM (inconclusive).
For `Cc1cc(N2CCOCC2)nc2ccc(N=C(S)N3CCCCC3C)cc12` (stereo not drawn), the CC50 [9] was 18.2 µM (active).
For `Cc1cc2c(cc1S(=O)(=O)N1CCN(c3ccc(Cl)cc3)CC1)OCCN2C`, the CC50 [9] was 41 µM (active).
With `CCc1nc(N2CCC(C)CC2)c2oc3ccccc3c2n1` the AC50 [10] was 4.63 µM (active).
For `COc1ccc(CNc2ncncc2-c2c(C)noc2C)c(OC)c1`, the AC50 [8] was 25.1 µM (inconclusive).
For `C1=C(c2sc3ccccc3c2-c2ccc(OCCN3CCOCC3)cc2)CCCC1`, the AC50 [10] was 2.71 µM (active).
In the case of `CCCc1cc(O)nc(SCC(=O)Nc2sc(C(N)=O)c(C)c2C(=O)OCCOC)n1`, the AC50 [10] is reported as 3.6 µM (active).
For `CN(C)CCNC(=O)C(C(=O)c1ccc(F)cc1)n1ccccc1=O` (stereo not drawn), the AC50 [8] was 0.631 µM (inconclusive).
For `COCCNC(=S)N/N=C(\C)c1ccc(OC(F)F)cc1`, the CC50 [9] was > 50 µM (active).
For `C(=N\N=C(\Nc1ccccc1)c1ccccn1)/c1ccccn1`, the EC50 [11] was > 300 µM (inconclusive).
With `C/C(CC(=O)Nc1ccc(Cl)c(C(F)(F)F)c1)=N\NC(=O)c1cc2ccccc2cc1O` the EC50 [3] was 1.57 µM (active), the EC50 [4] was > 150 µM (not active) and the EC50 [5] was 8.14 µM (active). The AC50 [10] was 8.61 µM (active).
With `Cc1ccc(/C=N/n2c(S)nnc2-c2cccs2)cc1` the AC50 ([2]; read-out: AC50) was 3.55 µM (inconclusive) and the AC50 [6] was 5.01 µM (inconclusive).
In the case of `Cc1ccc2nc(C)cc(N/N=C/c3ccccc3O)c2c1`, the AC50 [12] is reported as 4.03 µM (active).
In the case of `CC(/C=N/NC(=O)c1cccc([N+](=O)[O-])c1)=C\c1ccccc1`, the AC50 [8] is reported as 1.78 µM (inconclusive).
With `Cc1nc(N/N=C/c2ccc(O)cc2)c2cnn(-c3ccccc3)c2n1` the CC50 [9] was 42.8 µM (active).
For `CC1(C)Cc2c(sc(NC(=O)Nc3ccccc3)c2C(N)=O)CO1`, the EC50 [13] was > 120 µM (not active).
For `O=C(c1ccc(F)cc1)C1CCN(CCn2c(=S)[nH]c3ccccc3c2=O)CC1` [ALTANSERIN], the AC50 [6] was 10 µM (inconclusive), the AC50 [8] was 15.8 µM (inconclusive) and the AC50 [7] was 25.1 µM (inconclusive).
With `CN(C)CC/C=C1\c2ccccc2CSc2ccccc21` [DOTHIEPIN] the AC50 [6] was 7.94 µM (inconclusive).
